One sequence from article PMC12678337, “EAR-20 peptide, a novel NMDA receptor positive allosteric modulator” (Frontiers in Pharmacology, 2025) can be followed below.

Assay [1] deals with T1, GluN1-GluN2B (Rattus norvegicus, UniProt P35439+Q00960).
T1 construct: GFP (N); expressed in transfected cells; host or cells: HEK-293T
Description: cell-based.

The target of assay [2] is T1, GluN1-GluN2B. It is filed as cell-based.
Assay [3] concerns the target T2, GluN1-GluN2A (Rattus norvegicus, UniProt P35439+Q00959).
T2 construct: GFP (N); expressed in transfected cells; host or cells: HEK-293T (single-channel: HEK293)
In kind it is cell-based.

In a further assay the target is T3, GluN1-GluN2C (Rattus norvegicus, UniProt P35439+Q00961).
T3 construct: HA (N); expressed in transfected cells; host or cells: HEK-293T
In kind it is cell-based.

The target of assay [4] is T2, GluN1-GluN2A. The assay can be described thus: cell-based.
Assay [5] has as its target T1, GluN1-GluN2B. It is filed as cell-based. This is another data set of the same source.
Assay [6] deals with T2, GluN1-GluN2A. It is filed as cell-based. This is another data set of the same source.
The target in another assay is T4, GluN1-GluN2D (Rattus norvegicus, UniProt P35439+Q62645).
T4 construct: HA (N); expressed in transfected cells; host or cells: HEK-293T
In kind it is cell-based.

The target in another assay is T5, GluN1/GluN2A-V820I (Rattus norvegicus, UniProt P35439+Q00959, V820I).
T5 construct: GFP (N); expressed in transfected cells; host or cells: HEK-293T
It is filed as cell-based.

pEC50: −log10 of the molar value. “And” between values parts separate entries of the source, which are not always exact repeats. Equal values may be shown once. No end group written: not given here.

T2 sequence (Q00959 23-1464, other chains not shown): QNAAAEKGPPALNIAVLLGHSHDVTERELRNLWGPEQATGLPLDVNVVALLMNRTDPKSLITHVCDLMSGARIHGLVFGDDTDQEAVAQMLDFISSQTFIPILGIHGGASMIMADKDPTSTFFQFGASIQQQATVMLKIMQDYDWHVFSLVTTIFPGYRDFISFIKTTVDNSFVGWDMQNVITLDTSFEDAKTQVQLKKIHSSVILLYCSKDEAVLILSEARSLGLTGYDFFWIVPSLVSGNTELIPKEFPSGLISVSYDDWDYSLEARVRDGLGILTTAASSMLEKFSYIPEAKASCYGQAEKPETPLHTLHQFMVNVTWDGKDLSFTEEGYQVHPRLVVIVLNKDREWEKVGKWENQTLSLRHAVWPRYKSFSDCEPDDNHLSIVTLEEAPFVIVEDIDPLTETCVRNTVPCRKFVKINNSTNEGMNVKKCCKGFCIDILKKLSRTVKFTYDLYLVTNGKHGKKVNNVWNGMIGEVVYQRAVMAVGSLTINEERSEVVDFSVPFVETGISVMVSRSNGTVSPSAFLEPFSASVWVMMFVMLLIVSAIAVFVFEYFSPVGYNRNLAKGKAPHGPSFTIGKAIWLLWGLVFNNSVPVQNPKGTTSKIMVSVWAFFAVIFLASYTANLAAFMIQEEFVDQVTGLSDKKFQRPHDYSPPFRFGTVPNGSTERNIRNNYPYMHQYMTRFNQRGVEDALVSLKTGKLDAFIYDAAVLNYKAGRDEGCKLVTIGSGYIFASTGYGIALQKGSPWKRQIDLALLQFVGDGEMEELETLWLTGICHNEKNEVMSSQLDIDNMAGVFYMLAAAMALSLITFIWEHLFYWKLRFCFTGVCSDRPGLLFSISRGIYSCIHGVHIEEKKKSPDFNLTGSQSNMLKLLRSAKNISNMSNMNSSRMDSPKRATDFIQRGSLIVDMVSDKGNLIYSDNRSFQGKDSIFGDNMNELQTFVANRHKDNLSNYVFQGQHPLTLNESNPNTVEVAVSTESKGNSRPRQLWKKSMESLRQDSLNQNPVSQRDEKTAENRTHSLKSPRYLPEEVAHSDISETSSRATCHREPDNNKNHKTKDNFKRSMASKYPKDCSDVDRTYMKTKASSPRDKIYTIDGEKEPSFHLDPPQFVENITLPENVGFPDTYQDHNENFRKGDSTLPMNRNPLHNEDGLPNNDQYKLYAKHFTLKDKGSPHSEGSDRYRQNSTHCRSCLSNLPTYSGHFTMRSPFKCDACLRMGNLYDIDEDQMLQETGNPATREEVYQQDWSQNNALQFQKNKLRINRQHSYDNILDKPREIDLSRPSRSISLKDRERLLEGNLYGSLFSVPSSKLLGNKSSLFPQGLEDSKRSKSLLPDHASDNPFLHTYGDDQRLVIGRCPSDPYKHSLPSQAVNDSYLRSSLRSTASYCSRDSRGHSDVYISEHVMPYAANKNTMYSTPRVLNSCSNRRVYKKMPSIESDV
T3 sequence (Q00961 20-1237, other chains not shown): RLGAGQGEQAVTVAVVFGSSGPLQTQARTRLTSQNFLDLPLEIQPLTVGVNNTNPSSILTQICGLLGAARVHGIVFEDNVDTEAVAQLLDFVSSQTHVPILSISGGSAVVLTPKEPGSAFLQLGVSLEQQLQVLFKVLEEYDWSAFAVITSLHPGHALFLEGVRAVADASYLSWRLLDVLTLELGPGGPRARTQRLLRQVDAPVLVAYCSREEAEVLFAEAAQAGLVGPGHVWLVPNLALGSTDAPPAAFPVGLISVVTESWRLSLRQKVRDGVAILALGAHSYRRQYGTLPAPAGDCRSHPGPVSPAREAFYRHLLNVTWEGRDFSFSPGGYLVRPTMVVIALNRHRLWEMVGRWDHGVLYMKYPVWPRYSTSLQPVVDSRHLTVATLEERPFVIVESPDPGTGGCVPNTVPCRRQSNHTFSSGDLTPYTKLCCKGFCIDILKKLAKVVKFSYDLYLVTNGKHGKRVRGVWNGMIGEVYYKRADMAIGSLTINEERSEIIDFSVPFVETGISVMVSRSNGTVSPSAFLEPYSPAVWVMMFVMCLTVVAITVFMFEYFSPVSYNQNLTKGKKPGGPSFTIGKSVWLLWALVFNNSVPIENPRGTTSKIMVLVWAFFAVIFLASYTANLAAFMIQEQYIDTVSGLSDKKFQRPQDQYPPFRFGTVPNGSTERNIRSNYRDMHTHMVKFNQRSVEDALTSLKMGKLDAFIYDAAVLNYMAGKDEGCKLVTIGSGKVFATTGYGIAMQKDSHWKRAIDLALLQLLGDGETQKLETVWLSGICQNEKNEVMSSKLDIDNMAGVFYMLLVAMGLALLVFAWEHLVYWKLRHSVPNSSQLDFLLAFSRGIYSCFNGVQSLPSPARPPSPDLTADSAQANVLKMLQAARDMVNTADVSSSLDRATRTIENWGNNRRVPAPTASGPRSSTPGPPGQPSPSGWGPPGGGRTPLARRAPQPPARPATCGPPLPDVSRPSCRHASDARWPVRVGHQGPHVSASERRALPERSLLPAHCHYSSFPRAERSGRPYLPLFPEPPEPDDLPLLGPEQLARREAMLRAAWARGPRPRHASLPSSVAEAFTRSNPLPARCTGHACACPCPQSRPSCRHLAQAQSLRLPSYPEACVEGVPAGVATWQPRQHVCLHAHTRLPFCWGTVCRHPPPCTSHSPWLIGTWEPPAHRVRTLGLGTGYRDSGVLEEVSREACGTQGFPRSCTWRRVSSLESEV
T1 sequence (Q00960 27-1482, other chains not shown): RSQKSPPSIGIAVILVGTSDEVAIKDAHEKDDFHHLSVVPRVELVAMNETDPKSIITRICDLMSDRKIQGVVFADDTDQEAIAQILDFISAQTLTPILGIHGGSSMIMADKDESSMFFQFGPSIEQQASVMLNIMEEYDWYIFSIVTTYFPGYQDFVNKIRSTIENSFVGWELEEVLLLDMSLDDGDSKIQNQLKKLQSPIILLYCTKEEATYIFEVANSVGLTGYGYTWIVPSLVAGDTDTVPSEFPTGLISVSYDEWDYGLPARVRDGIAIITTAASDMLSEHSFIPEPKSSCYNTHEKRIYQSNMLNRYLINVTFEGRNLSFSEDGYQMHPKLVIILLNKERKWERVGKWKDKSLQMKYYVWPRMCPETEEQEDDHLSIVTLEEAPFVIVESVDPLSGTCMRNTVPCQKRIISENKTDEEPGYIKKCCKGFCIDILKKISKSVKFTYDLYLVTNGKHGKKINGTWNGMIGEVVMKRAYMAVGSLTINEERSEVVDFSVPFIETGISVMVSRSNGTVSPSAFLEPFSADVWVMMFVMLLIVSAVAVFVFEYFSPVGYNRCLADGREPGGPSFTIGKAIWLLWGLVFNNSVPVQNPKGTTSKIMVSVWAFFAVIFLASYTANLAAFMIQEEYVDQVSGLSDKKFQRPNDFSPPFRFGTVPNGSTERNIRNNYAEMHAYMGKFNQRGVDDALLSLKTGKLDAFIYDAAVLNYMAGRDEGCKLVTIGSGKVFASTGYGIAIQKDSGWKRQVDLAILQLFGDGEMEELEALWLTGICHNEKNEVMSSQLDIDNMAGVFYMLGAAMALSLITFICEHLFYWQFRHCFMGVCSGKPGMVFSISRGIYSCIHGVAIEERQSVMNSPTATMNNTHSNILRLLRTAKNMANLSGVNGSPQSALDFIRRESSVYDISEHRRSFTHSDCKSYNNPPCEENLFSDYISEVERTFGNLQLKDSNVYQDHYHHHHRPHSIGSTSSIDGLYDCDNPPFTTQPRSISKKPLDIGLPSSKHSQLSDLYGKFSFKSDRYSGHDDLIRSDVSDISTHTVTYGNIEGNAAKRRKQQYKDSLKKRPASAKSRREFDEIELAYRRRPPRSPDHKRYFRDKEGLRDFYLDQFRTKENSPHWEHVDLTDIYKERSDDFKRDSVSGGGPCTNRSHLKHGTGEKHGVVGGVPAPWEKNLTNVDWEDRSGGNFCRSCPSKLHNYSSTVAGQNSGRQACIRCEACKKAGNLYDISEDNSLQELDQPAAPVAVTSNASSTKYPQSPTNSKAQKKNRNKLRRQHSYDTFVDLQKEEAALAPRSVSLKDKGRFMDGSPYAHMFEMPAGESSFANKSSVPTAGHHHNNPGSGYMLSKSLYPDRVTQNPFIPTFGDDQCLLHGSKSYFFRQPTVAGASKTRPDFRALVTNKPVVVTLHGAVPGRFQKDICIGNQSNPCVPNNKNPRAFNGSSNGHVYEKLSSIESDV

What is called pEC50 is −log10 of the EC50, conventionally taken in molar units. Lower therefore signals a high EC50. Turning to KLGMRSELQIDNDQDAD [EAR-20], on GluN1-GluN2B [1], the pEC50 was 4.37. At GluN1-GluN2B [2], the “maximal agonist activity relative to glutamate plus glycine” value was 12.18% ± 6.9%; the “response in the presence of glutamate, % of glutamate plus glycine response” value is on record as 38.33% ± 17.1%; the “response in the presence of glycine, % of glutamate plus glycine response” value was 43.22% ± 18.1%. Besides, the “agonistic activity relative to glutamate plus glycine” value on GluN1-GluN2A [3] was 13.31% ± 6.5%. Further, on GluN1-GluN2C, the peak current potentiation is −8.04% ± 7.48%; the steady-state current potentiation is 23.31% ± 7.6% and ~25%. The sequence also had a pEC50 at GluN1-GluN2A [4] of 4.05. On GluN1-GluN2B [5], the peak current potentiation was 102.6% ± 24.02%; the “potentiation by EAR-20” value was 136.8% ± 19.6%; the steady-state current potentiation is 137.9% ± 21.0% and 137.9% and 143.7% ± 26.8%. Also, on GluN1-GluN2A [6], the peak current potentiation is 15.68% ± 6.19% and 15.68% ± 6.16%; the steady-state current potentiation is 154.3% ± 19.0% and 154.3% and 153.3% ± 19.9%. Besides, on GluN1-GluN2D, the peak current potentiation is given as 4.97% ± 2.63% and the steady-state current potentiation is listed as 102.45% ± 11.1%. Moreover, the steady-state potentiation on GluN1/GluN2A-V820I is 146.6% ± 37.8%.
